Results taken from US20250304563A1, “ACTIVATORS OF EFFECTOR T CELLS” (Orum Therapeutics, Inc., priority 2022, published 2025).

Tests used:
[1] = target: Cbl-b (36-427 aa truncated form, N-terminus Avi-tag) (Homo sapiens (Human), UniProt Q13191); assay: Cbl-b binding: TR-FRET displacement of BODIPY-FL probe
Method in brief: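 Avi-tagged Cbl-b 36-427 preincubated 1 h at RT with streptavidin-terbium in HEPES pH 7.5/NaCl/Triton/BSA/TCEP buffer, then 1 uM BODIPY-FL inhibitor probe plus compound added for 1 h. Probe displacement read by TR-FRET; IC50 fitted.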

Human primary T cells [2] = assay: T cell activation: secreted IL-2; type: cell-based; settings: 48 hours, fold over background normalized to Compound 141A; for IL-2 1 nM: 1 nM compound; for IL-2 10 nM: 10 nM compound; for IL-2 100 nM: 100 nM compound
Experimental: (§1) Human primary T cells were isolated from commercially available frozen peripheral blood mononuclear cells (HemaCare Corporation) or from fresh LeukoPaks (Research Blood Components). T cells were isolated through depletion of non-T cells using negative selection kit according to the manufacturer's protocol (Miltenyi Biotec, Human Pan T Cell Isolation Kit, 130-096-535). Isolated cells were cultured overnight at 37° C. with 5% CO2 and plated at 1×10^5 cells per well in XVivo-15 serum-free media (Lonza, 04-418Q) into 96 well plates coated with anti-CD3 (OKT3) antibody (ThermoFisher, 16-0037-85). To coat the plates for T cell capture, anti-CD3 antibody was diluted in PBS at 10 μg/mL and 100 μl added to each well. Plates were incubated at 4° C. overnight or at 37° C. for 2 hours and washed once with PBS before use. Serial dilutions of each compound were added in duplicates to the T cells to assess their effect on T cell activation. T cells treated with 5 μg/mL of CD28 antibody (ThermoFisher, 16-0289-85) or T cells stimulated by CD3 only were used as a control. Plates were incubated with the Cbl-b inhibitors for 48 hours at 37° C. with 5% CO2, and supernatants were subsequently analyzed for levels of the activation induced secreted cytokines IL-2 or IFN-y (BD Biosciences CBA Flex Beads, 558269, 558270). T cells were additionally stained with anti-CD69 antibody (Invitrogen, 12-0699-42 which labels a T cell activation associated membrane protein to and surface expression was measured by flow cytometry (ThermoFisher Attune NxT).
(§2) To control for natural inter-donor variability in T cell responses intrinsic to using primary human donor derived cells, secreted IL-2 and IFN-y measurements for each test compound were reported as the fold increase of the compound treated levels over background (antiCD3/CD28 treatment only) normalized to the values obtained for Compound 141A. Results for compound treatment-induced changes in CD69 levels are similarly reported as the fold increase due to compound treatment over anti-CD3 stimulated background only, normalized to values obtained for Compound 141A.
Normalized T cell IL-2 responses were sorted into ranges as follows: fold over background values between 1.41 and 1.8: range “X”, between 0.80 and 1.40: range “A”, values between 0.31 and 0.79: range “B” values between 0.10 and 0.30: range “C”, values between 0.01 and 0.09: range “D.”

Human primary T cells [3] = assay: T cell activation: secreted IFN-y; type: cell-based; settings: 48 hours, fold over background normalized to Compound 141A; for IFN-y 1 nM: 1 nM compound; for IFN-y 10 nM: 10 nM compound; for IFN-y 100 nM: 100 nM compound
Experimental: as §1, §2
Normalized T cell IFN-y responses were sorted into ranges as follows: fold over background between 1.10 and 2.00: range “A”, values between 0.31 and 1.00: range “B;” values between 0.10 and 0.30: range “C”, and values between 0.01 and 0.09: range “D.”

Human primary T cells [4] = assay: T cell activation: CD69 surface expression by flow cytometry; type: cell-based; settings: fold over anti-CD3 stimulated background normalized to Compound 141A; for CD69 10 nM: 10 nM compound; for CD69 100 nM: 100 nM compound
Experimental: as §1, §2
Similarly, bins for normalized CD69 levels were sorted into ranges as follows: fold over background values between 1.11 and 1.6: range “X”, values between 0.81 and 1.10: range “A”; values between 0.61 and 0.80: range “B;” values between 0.30 and 0.60: range “C”.

Sequence of Cbl-b (36-427 aa truncated form, N-terminus Avi-tag) (Q13191 36-427): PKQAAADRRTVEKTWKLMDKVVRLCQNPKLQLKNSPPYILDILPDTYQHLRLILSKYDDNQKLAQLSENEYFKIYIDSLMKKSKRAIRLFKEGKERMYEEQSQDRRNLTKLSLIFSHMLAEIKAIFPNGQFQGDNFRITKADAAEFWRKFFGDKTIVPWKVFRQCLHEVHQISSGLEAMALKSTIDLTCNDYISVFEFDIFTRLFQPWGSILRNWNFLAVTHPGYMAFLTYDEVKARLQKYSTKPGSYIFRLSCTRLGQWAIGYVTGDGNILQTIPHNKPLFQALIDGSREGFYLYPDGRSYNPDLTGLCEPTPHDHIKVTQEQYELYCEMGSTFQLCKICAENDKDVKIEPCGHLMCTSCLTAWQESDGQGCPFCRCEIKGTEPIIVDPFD

| SMILES | IC50 [1] | IL-2 1 nM (Human primary T cells [2]) | IL-2 10 nM (Human primary T cells [2]) | IL-2 100 nM (Human primary T cells [2]) | IFN-y 1 nM (Human primary T cells [3]) | IFN-y 10 nM (Human primary T cells [3]) | IFN-y 100 nM (Human primary T cells [3]) | CD69 10 nM (Human primary T cells [4]) | CD69 100 nM (Human primary T cells [4]) |
| --- | --- | --- | --- | --- | --- | --- | --- | --- | --- |
| C[C@H]1CCCN(Cc2cc3c(c(C(F)(F)F)c2)CN(c2cc(C4(Cc5nncn5C)COC4)cc(SCCO)n2)C3=O)C1 [Compound 102, 2-{6-[(2-hydroxyethyl)sulfanyl]-4-{3-[(4-methyl-1,2,4-triazol-3-yl)methyl]oxetan-3-yl}pyridin-2-yl}-6-{[(3S)-3-methylpiperidin-1-yl]methyl}-4-(trifluoromethyl)-3H-isoindol-1-one] | 5.01 to 20 nM | C (values between 0.10 and 0.30: range “C”) | C (values between 0.10 and 0.30: range “C”) | B (values between 0.31 and 0.79: range “B”) | C (values between 0.10 and 0.30: range “C”) | C (values between 0.10 and 0.30: range “C”) | B (values between 0.31 and 1.00: range “B;”) | C (values between 0.30 and 0.60: range “C”) | B (values between 0.61 and 0.80: range “B;”) |
| CSCCNc1cc(C2(Cc3nncn3C)COC2)cc(N2Cc3c(cc(CN4CCC[C@H](C)C4)cc3C(F)(F)F)C2=O)n1 [Compound 103, 2-(4-{3-[(4-methyl-1,2,4-triazol-3-yl)methyl]oxetan-3-yl}-6-{[2-(methylsulfanyl)ethyl]amino}pyridin-2-yl)-6-{[(3S)-3-methylpiperidin-1-yl]methyl}-4-(trifluoromethyl)-3H-isoindol-1-one] | 5.01 to 20 nM | C (values between 0.10 and 0.30: range “C”) | C (values between 0.10 and 0.30: range “C”) | B (values between 0.31 and 0.79: range “B”) | C (values between 0.10 and 0.30: range “C”) | C (values between 0.10 and 0.30: range “C”) | B (values between 0.31 and 1.00: range “B;”) | C (values between 0.30 and 0.60: range “C”) | B (values between 0.61 and 0.80: range “B;”) |
| CCSc1cc(C2(Cc3nncn3C)COC2)cc(N2Cc3c(cc(CN4CCC[C@H](C)C4)cc3C(F)(F)F)C2=O)n1 [Compound 107, 2-[6-(ethylsulfanyl)-4-{3-[(4-methyl-1,2,4-triazol-3-yl)methyl]oxetan-3-yl}pyridin-2-yl]-6-{[(3S)-3-methylpiperidin-1-yl]methyl}-4-(trifluoromethyl)-3H-isoindol-1-one] | 5.01 to 20 nM | B (values between 0.31 and 0.79: range “B”) | B (values between 0.31 and 0.79: range “B”) | A (between 0.80 and 1.40: range “A”) | B (values between 0.31 and 1.00: range “B;”) | B (values between 0.31 and 1.00: range “B;”) | B (values between 0.31 and 1.00: range “B;”) | A (values between 0.81 and 1.10: range “A”) | A (values between 0.81 and 1.10: range “A”) |
| C[C@H]1CCCN(Cc2cc3c(c(C(F)(F)F)c2)CN(c2cc(C4(Cc5nncn5C)COC4)cc(NCCC#N)n2)C3=O)C1.O=CO [Compound 110, 3-[(4-{3-[(4-methyl-1,2,4-triazol-3-yl)methyl]oxetan-3-yl}-6-(6-{[(3S)-3-methylpiperidin-1-yl]methyl}-1-oxo-4-(trifluoromethyl)-3H-isoindol-2-yl)pyridin-2-yl)amino]propanenitrile; formic acid] | 1 to 5 nM | C (values between 0.10 and 0.30: range “C”) | B (values between 0.31 and 0.79: range “B”) | B (values between 0.31 and 0.79: range “B”) | B (values between 0.31 and 1.00: range “B;”) | B (values between 0.31 and 1.00: range “B;”) | B (values between 0.31 and 1.00: range “B;”) | B (values between 0.61 and 0.80: range “B;”) | A (values between 0.81 and 1.10: range “A”) |
| CCSc1cc(C2(c3nncn3C)CC(C)C2)cc(N2Cc3c(cc(CN4CCC[C@H](C)C4)cc3C(F)(F)F)C2=O)n1 (stereo partly drawn) [Compound 112, 2-[6-(ethylsulfanyl)-4-[(1r,3s)-3-methyl-1-(4-methyl-1,2,4-triazol-3-yl)cyclobutyl]pyridin-2-yl]-6-{[(3S)-3-methylpiperidin-1-yl]methyl}-4-(trifluoromethyl)-3H-isoindol-1-one] | 20 to 100 nM | C (values between 0.10 and 0.30: range “C”) | C (values between 0.10 and 0.30: range “C”) | B (values between 0.31 and 0.79: range “B”) | C (values between 0.10 and 0.30: range “C”) | B (values between 0.31 and 1.00: range “B;”) | B (values between 0.31 and 1.00: range “B;”) | C (values between 0.30 and 0.60: range “C”) | B (values between 0.61 and 0.80: range “B;”) |

Second part, led by results:

| IC50 [1] | SMILES | IL-2 1 nM (Human primary T cells [2]) | IL-2 10 nM (Human primary T cells [2]) | IL-2 100 nM (Human primary T cells [2]) | IFN-y 1 nM (Human primary T cells [3]) | IFN-y 10 nM (Human primary T cells [3]) | IFN-y 100 nM (Human primary T cells [3]) | CD69 10 nM (Human primary T cells [4]) | CD69 100 nM (Human primary T cells [4]) |
| --- | --- | --- | --- | --- | --- | --- | --- | --- | --- |
| 100 to 1000 nM | CCNc1cc(C2(Cc3nncn3C)COC2)cc(N2Cc3c(cc(CN4CCC(CSC)CC4)cc3C(F)(F)F)C2=O)n1 [Compound 106, 2-[6-(ethylamino)-4-{3-[(4-methyl-1,2,4-triazol-3-yl)methyl]oxetan-3-yl}pyridin-2-yl]-6-({4-[(methylsulfanyl)methyl]piperidin-1-yl}methyl)-4-(trifluoromethyl)-3H-isoindol-1-one] | C (values between 0.10 and 0.30: range “C”) | C (values between 0.10 and 0.30: range “C”) | B (values between 0.31 and 0.79: range “B”) | C (values between 0.10 and 0.30: range “C”) | C (values between 0.10 and 0.30: range “C”) | B (values between 0.31 and 1.00: range “B;”) | C (values between 0.30 and 0.60: range “C”) | B (values between 0.61 and 0.80: range “B;”) |
| 5.01 to 20 nM | CCNc1cc(C2(Cc3nncn3C)COC2)cc(N2Cc3c(cc(CN4CCC[C@H](CSC)C4)cc3C(F)(F)F)C2=O)n1 [Compound 111, 2-[6-(ethylamino)-4-{3-[(4-methyl-1,2,4-triazol-3-yl)methyl]oxetan-3-yl}pyridin-2-yl]-6-{[(3S)-3-[(methylsulfanyl)methyl]piperidin-1-yl]methyl}-4-(trifluoromethyl)-3H-isoindol-1-one] | C (values between 0.10 and 0.30: range “C”) | B (values between 0.31 and 0.79: range “B”) | B (values between 0.31 and 0.79: range “B”) | B (values between 0.31 and 1.00: range “B;”) | B (values between 0.31 and 1.00: range “B;”) | B (values between 0.31 and 1.00: range “B;”) | B (values between 0.61 and 0.80: range “B;”) | A (values between 0.81 and 1.10: range “A”) |
